Earlier results, collected in patent publication US20240141352A1, “CHAPERONIN-CONTAINING TCP-1 INHIBITORS FOR THE TREATMENT OF CANCER” (UNIVERSITY OF CENTRAL FLORIDA RESEARCH FOUNDATION, INC., priority 2021, published 2024).

What was measured:
MDA-MB-231 cells = conditions: MDA-MB-231 spheroids
[1] = system: cancer cells that highly express CCT
[2] = system: breast and prostate tumors; conditions: systemic delivery with polymeric nanoparticles
CCT2 subunit = target: T1, CCT2 subunit (Homo sapiens, UniProt P78371)
T1 sequence (P78371 1-535): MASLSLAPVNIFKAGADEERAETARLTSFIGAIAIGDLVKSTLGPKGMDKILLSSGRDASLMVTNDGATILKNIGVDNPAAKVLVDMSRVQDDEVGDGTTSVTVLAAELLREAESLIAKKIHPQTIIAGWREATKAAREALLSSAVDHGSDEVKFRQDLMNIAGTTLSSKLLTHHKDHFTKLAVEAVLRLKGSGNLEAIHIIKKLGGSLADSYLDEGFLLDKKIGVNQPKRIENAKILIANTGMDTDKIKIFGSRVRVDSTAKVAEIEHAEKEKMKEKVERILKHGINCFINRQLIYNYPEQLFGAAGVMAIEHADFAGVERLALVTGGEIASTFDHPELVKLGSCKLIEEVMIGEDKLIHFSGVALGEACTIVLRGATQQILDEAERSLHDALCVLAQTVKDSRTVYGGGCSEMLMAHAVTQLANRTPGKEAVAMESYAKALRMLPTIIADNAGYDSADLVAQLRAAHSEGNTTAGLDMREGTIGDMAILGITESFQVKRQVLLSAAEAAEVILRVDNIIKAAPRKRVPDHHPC

Row | Compound | resistance of spheroids to treatment (MDA-MB-231 cells) | cytotoxicity [1] | tumor regression [2] | binding to CCT2 subunit (CCT2 subunit)
1 | N.N.O=C([O-])C1(C(=O)[O-])CCC1.[Pt+2] [carboplatin] | increased resistance |  |  | 
2 | COc1cccc2c1C(=O)c1c(O)c3c(c(O)c1C2=O)C[C@@](O)(C(=O)CO)C[C@@H]3O[C@H]1C[C@H](N)[C@H](O)[C@H](C)O1 [doxorubicin] | increased resistance |  |  | 
3 | VTIFVAGVLTASLTIWKKMG [CT20p] |  | cytotoxic | regression | directly binds
